The assay relates to cardiomyocytes. Description: Adult primary cardiomyocyte glucose uptake test. It counts as cell-based, mouse. The following applies: db/db cardiomyocytes, 10 nM insulin, metformin (20 µM) positive control. How it is done:
Adult mouse cardiomyocytes were isolated from both male and female mice with collagenase II (2 mg/mL, Worthington Biochemical Corporation). Freshly isolated cardiomyocytes were seeded in laminin-precoated culture dishes and cultured in perfusion buffer (120.4 mM NaCl, 14.7 mM KCl, 0.6 mM KH2PO4, 0.6 mM Na2HPO4, 1.2 mM MgSO4×7H2O, 10 mM Hepes, 4.6 mM NaHCO3, 30 mM taurine, and 5.5 mM glucose) for 1 hour in 37° C. and 5% CO2 incubator prior to further experiments.
For glucose uptake assays, freshly isolated CMCs were seeded and cultured in laminin-precoated 96-well plates for 1 hour prior to the test. Cells were then washed twice with glucose-free perfusion buffer (120.4 mM NaCl, 14.7 mM KCl, 0.6 mM KH2PO4, 0.6 mM Na2HPO4, 1.2 mM MgSO4: 7H2O, 10 mM HEPES) and starved in starvation buffer (glucose-free perfusion buffer containing 1 mM pyruvate, 0.1% BSA) for 40 min. Metformin (0, 20 μM) was loaded together with starvation buffer in the indicated groups. Cells were then stimulated in the absence or presence of insulin (0, 10 nM) (Sigma-Aldrich) for 20 min. Following the manufacturer's instructions, 2 DG-glucose uptake test in CMCs was then determined by Glucose Uptake Assay kit (Abcam) and quantified with a FlexStation 3 plate reader (Molecular Devices).

This note sets out measurements from US20250381306A1, “COMPOSITIONS AND METHODS FOR TREATING DIABETIC CARDIOMYOPATHY” (UNIVERSITY OF UTAH RESEARCH FOUNDATION, priority 2022, published 2025).

For `CN(C)C(=N)N=C(N)N` [metformin], the “insulin-stimulated uptake of 2-Deoxy-D-glucose” value was “rescue”.
